Reference: patent US20090099140A1, “20-Alkyl, Gemini Vitamin D3 Compounds and Methods of Use Thereof” (BioXell S.p.A., priority 2005, published 2009)

Columns and labels:
female C57BL/6 mice = test: Determination of maximum tolerated dose (MTD), highest oral dose without hypercalcemia (serum calcium); format: in vivo; settings: eight week-old female C57BL/6 mice, p.o. daily for four days in miglyol; highest dose without hypercalcemia (serum calcium >10.7 mg/dl) on day five
Experimental: (§1) The maximum tolerated dose of the vitamin D3 compounds of the invention were determined in eight week-old female C57BL/6 mice (3 mice/group) dosed orally (0.1 ml/mouse) with various concentrations of Vitamin D3 analogs daily for four days. Analogs were formulated in miglyol for a final concentration of 10, 30, 100 and 300 μg/kg when given at 0.1 ml/mouse p.o. daily. Blood for serum calcium assay was drawn by tail bleed on day five, the final day of the study. Serum calcium levels were determined using a colorimetric assay (Sigma Diagnostics, procedure no. 597). The highest dose of analog tolerated without inducing hypercalcemia (serum calcium >10.7 mg/dl) was taken as the maximum tolerated does (MTD).

IFN-γ production = IFN-γ production by allogeneic T cell activation in the mixed leukocyte response (MLR); format: cell-based; settings: MLR of allogeneic PBMC from 2 different donors, 5 days, IFN-γ by ELISA, 50% inhibition of IFN-γ production
Experimental: Immature dendritic cells (DC) were prepared as described in Romani, N. et al., J. Immunol. Meth. 196:137. IFN-γ production by allogeneic T cell activation in the mixed leukocyte response (MLR) was determined as described in Penna, G., et al., J. Immunol., 164: 2405-2411 (2000).
Briefly, peripheral blood mononuclear cells (PBMC) were separated from buffy coats by Ficoll gradient and the same number (3×105) of allogeneic PBMC from 2 different donors were co-cultured in 96-well flat-bottom plates. After 5 days, IFN-γ production in the MLR assay was measured by ELISA and the results expressed as amount (nM) of test compound required to induce 50% inhibition of IFN-γ production (IC50) (Table 1).

[1] = Determination of maximum tolerated dose (MTD), highest oral dose without hypercalcemia (serum calcium); format: in vivo; settings: mouse, in vivo, po; eight week-old female C57BL/6 mice, p.o. daily for four days in miglyol; highest dose without hypercalcemia (serum calcium >10.7 mg/dl) on day five; read-out: MTD (mice)
Experimental: as §1

Compound	MTD (mice) (female C57BL/6 mice) [µg/kg]	IC50 (IFN-γ production) [pM]	MTD at 4 days [1] [µg/kg]	IC50 (IFN-γ production; 120 h) [pM]
1α-Fluoro-25-hydroxy-20S-20-(4-hydroxy-5,5,5-trideutero-4-trideuteromethyl-pentyl)-23E-ene-26,27-hexafluorocholecalciferol [Compound 21]	10	7.1		
[2H]C([2H])([2H])C(O)(CCC[C@@](C)(C/C=C\C(O)(C(F)(F)F)C(F)(F)F)[C@H]1CCC2/C(=C/C=C3/C[C@@H](O)C[C@H](O)C3=C)CCC[C@@]21C)C([2H])([2H])[2H] (stereo partly drawn) [Compound 16, 1,25-Dihydroxy-20S-20-(4-hydroxy-5,5,5-trideutero-4-trideuteromethyl-pentyl)-23Z-ene-26,27-hexafluorocholecalciferol]			0.3	11.1
CC(C)(O)CCC[C@@](C)(C/C=C\C(O)(C(F)(F)F)C(F)(F)F)[C@H]1CCC2/C(=C/C=C3/CC(O)C[C@H](O)C3)CCC[C@@]21C (stereo partly drawn) [Compound 11, (20S)-1,25-Dihydroxy-20-[(2Z)-5,5,5-trifluoro-4-hydroxy-4-trifluoromethyl-pent-2-enyl]-19-nor-cholecalciferol]			3	253
[2H]C([2H])([2H])C(O)(CCC[C@](C)(C/C=C\C(O)(C(F)(F)F)C(F)(F)F)[C@H]1CCC2/C(=C/C=C3/C[C@@H](O)C[C@H](O)C3=C)CCC[C@@]21C)C([2H])([2H])[2H] (stereo partly drawn) [Compound 25, 1,25-Dihydroxy-20R-20-(4-hydroxy-5,5,5-trideutero-4-trideuteromethyl-pentyl)-23Z-ene-26,27-hexafluorocholecalciferol]			3	1
